Measured values from EPA's ToxValDB 9.5 (doi:10.2903/j.efsa.2013.3111).
Values after ≈ are worked out from the molar mass of the structure shown.

What was measured:
Colinus virginianus = details: acute, oral, mortality
Bibionidae = details: chronic/long-term; duration: 28 days; other
Apis mellifera = details: acute; duration: 48 hours; oral; unspecified; mortality
Daphnia magna = details: chronic/long-term; duration: 21 days; reproduction
Typhlodromus pyri = test: LR50; higher = less toxic; details: duration: 7 days, mortality

With `CC(C)CC(C)c1sccc1NC(=O)c1cn(C)nc1C(F)(F)F` (stereo unspecified) [Penthiopyrad] the LD50 (Colinus virginianus; diet) was > 1910 mg/kg-day, the LD50 (Colinus virginianus) was > 2250 mg/kg-day and the LD50 (Rattus norvegicus; acute, oral, mortality) was > 2000 mg/kg. It also gave an NOAEL (Rattus norvegicus; chronic, body weight) of 54 mg/kg-day, an NOAEC (Bibionidae) of 50 mg/kg and an LC50 (Pimephales promelas; acute, duration: 96 hours, mortality) of 0.29 µg/mL (≈ 0.807 µM). The NOAEC (Pimephales promelas; chronic/long-term, duration: 33 days, growth) was 51 µg/L, the LD50 (Apis mellifera) was > 500 µg/piece and the LOAEL (Anas platyrhynchos; reproductive, reproduction) was 719 mg/kg-day. For the same compound, the NOAEL (Anas platyrhynchos; reproductive, reproduction) was 207 mg/kg-day, the LC50 (Anas platyrhynchos; short-term, oral, feed, no effects) was > 5790 mg/kg-day and the NOAEC (Daphnia magna) was 471 µg/L. For the same compound, the LC50 (Tagia sp.; acute, duration: 14 days, mortality) was > 1000 mg/kg, the NOEC (Tagia sp.; chronic/long-term, duration: 56 days, reproduction) was ≥ 48 mg/kg and the LR50 (Typhlodromus pyri; acute) was 238 g/ha. The LR50 (Typhlodromus pyri; chronic/long-term) was 124 g/ha.
